The test system of assay [1] is monoclonal antibodies to DiAcSpm (Fujiwara et al., Japanese Unexamined Patent Publication No. H11-75839). The conditions noted are these: prior-art monoclonal antibodies; cited from earlier work.
Assay [2] concerns the target anti-DiAcSpm monoclonal antibody. Briefly: Kit competitive ELISA with solid-phased AcSpm-HMC-peptide, crossreactivities of structure analogs. The format is binding, mouse. The conditions noted are these: for KiDiAcSpm/Ki"S" (%) . . . (1): 15 ng/ml antibody, 0.07 μg/ml solid-phased antigen; for Crossreactivity (1) × (2) (%): crossreactivity in urine, Ki ratio × urinary ratio. As for the experimental part:
As a measuring kit, competitive ELISA using a solid-phased antigen AcSpm-HMC-peptide was performed based on known methods (Hiramatsu, K. et al., J. Biochem., 124, 231-236 (1998)). As the primary antibody, the monoclonal antibody prepared in Example 1 was used. As the secondary antibody, a commercial, goat-derived HRP-labeled anti-mouse IgG antibody (KPL) was used. The concentration of the solid-phased antigen was set at 0.07 μg/ml based on the concentration employed in a kit using anti-DiAcSpm polyclonal antibody. With respect to the concentration of anti-DiAcSpm monoclonal antibody to be used, 15 ng/ml was selected so that 40% of the maximum reaction efficiency (the point at which the absorbance at 492 nm becomes 1) is achieved when the concentration of the solid-phased antigen AcSpm-HMC-peptide is 0.07 μg/ml (FIG. 4). The dilution ratio of the goat-derived HRP-labeled anti-mouse IgG antibody was set at 2,500-fold from experience.
First, under the conditions established in (1) above, crossreactivities of structure analogs of DiAcSpm with DiAcSpm in urine samples were examined. Briefly, the 50% inhibition activity concentrations of DiAcSpm, N^1-AcSpm, DiAcSpd, N^1-AcSpd, N^8-AcSpd and DiAcPut in the kit were examined, and the crossreactivities of other structure analogs with DiAcSpm in urine were calculated. As a result, crossreactivity with N^1-AcSpd (whose crossreactivity is most apprehended) was 1.62%; crossreactivity with AcSpm was 0.54%; crossreactivity with DiAcSpd was 0.002%; crossreactivity with N^8-AcSpd was 0.01%; crossreactivity with AcPut was 0.01%; and the total crossreactivity was 2.17% (Table 2).
A general note: An ELISA detects its analyte on a solid surface through an enzyme-linked reagent.

Assay [3] relates to anti-DiAcSpm monoclonal antibody CN647. Briefly: Crossreactivity test on cloned wells (culture supernatant of CN647 strain). The format is binding, mouse. The conditions noted are these: all three cloned wells, one designated CN647; FIG. 3. As for the experimental part:
Briefly, cells were diluted with 20% FCS-containing RPMI medium to a density of 2.5 cells/ml and added to two 96-well culture plates at 200 μl/well. After five days, single colonies were examined. As a result, a single colony was confirmed in 17 wells out of the two 96-well plates. After 10 days, antibody titers to DiAcSpm were measured in culture supernatants by the method described in Experimental Example 2. Three wells were positive. Cells in these three wells were cultured further and tested for crossreactivities with AcSpm, N^1-AcSpd, N^8-AcSpd, DiAcSpd and AcPut by the method described in Experimental Example 3. […] Thus, antibodies sufficient to achieve the object have been obtained (FIG. 3). One of them was designated “established clone CN647”.
Antibody titers in diluted culture supernatants were measured by the method described in Experimental Example 2. Based on the results, the dilution rate with which the absorbance at 492 nm becomes 1 was selected. To each well of dilution plates, 70 μl of culture supernatant diluted at the dilution rate selected above and 70 μl of DiAcSpm solution with serially varied concentration or a structure analog of DiAcSpm (N^1-AcSpm, N^1-AcSpd, DiAcSpd, or the like) with serially varied concentration were mixed and added, and then left at 25° C. for 1 hour for pre-reaction. Subsequently, to each well of freeze-dried plates prepared in the same manner as in Experimental Example 1, 300 μl of BST was added, left at 25° C. for 30 minutes and re-washed with BST once. To the resultant plates, the pre-reacted reaction solution was added at 50 μl/well and left at 25° C. for 1 hour. Then, after washing with PBST three times, 50 μl of 80-fold dilution of HRP-labeled anti-mouse IgG antibody (KPL) was added to each well and left at 25° C. for 1 hour. […] Then, absorbances at 492 nm were measured with an ELISA reader.

Assay [4] concerns anti-DiAcSpm polyclonal antibody. Briefly: Evaluation of immunizing antigen lots (inhibition of polyclonal antibody reaction with solid-phased antigen). The format is binding, rabbit. The conditions noted are these: six lots compared; absorbance at 492 nm; FIG. 1. As for the experimental part:
The antigen was evaluated using DiAcSpm specific polyclonal antibody. Six lots of the antigen prepared in (1) above were examined on their activities to inhibit the reaction of anti-DiAcSpm polyclonal antibody with solid-phased AcSpm-HMC-AcSpm, by the method described later in Experimental Example 1.
AcSpm-HMC-peptide diluted with PBS (pH 7.0) to 0.07 μg/ml was added to 96-well microtiter plates at 50 μl/well as an antigen to be solid-phased, and left at 25° C. for 1.5 hours. Subsequently, the plates were washed with 0.05% Tween20-containing PBS (pH 7.0) (PBST) three times. Then, 0.5% gelatin-containing PBST (blocking solution) was added thereto at 200 μl/well and left at 25° C. for 1 hour. The plates were frozen at −30° C. overnight to freeze the blocking solution for freeze-drying to thereby prepare freeze-dried plates. To each well of dilution plates, 70 μl of 10 μg/ml anti-DiAcSpm polyclonal antibody and 70 μl of each lot of the immunizing antigen AcSpm-GMB-AMS-BSA with serially varied concentration were mixed and added, and left at 25° C. for 1 hour for pre-reaction. Subsequently, to each well of the freeze-dried plates prepared in Experimental Example 1, 300 μl of PBST was added, left at 25° C. for 30 minutes and then re-washed with PBST once. To each well of these plates, 50 μl of the pre-reacted reaction solution was added and left at 25° C. for 1 hour. Then, after washing with PBST three times, 50 μl of 80-fold dilution of HRP-labeled anti-rabbit IgG antibody (Bio-Rad) was added to each well and left at 25° C. for 1 hour. Subsequently, after washing with PBST three times, 100 μl of o-phenylenediamine solution diluted with 0.012% hydrogen peroxide-containing 0.1 M citrate phosphate buffer (pH 5.0) to 0.5 mg/ml was added to each well and left at 25° C. for 9 minutes. Then, absorbances at 492 nm were measured with an ELISA reader.

The test system of assay [5] is monoclonal antibodies to DiAcSpm (Fujiwara et al., Japanese Unexamined Patent Publication No. H11-75839). Description: Prior-art 50% binding inhibition of immunoreaction (Fujiwara et al. antibodies). The conditions noted are these: crossreactivity with DiAcSpm taken as 100; N^1-AcSpd about 25 times DiAcSpm in urine. From the text: Recently, Fujiwara et al. prepared monoclonal antibodies to DiAcSpm (Japanese Unexamined Patent Publication No. H11-75839). With these antibodies, 50% binding inhibition activity against immunoreaction with DiAcSpm is only about 100 times as much as 50% binding inhibition activity against immunoreaction with N^1-acetylspermidine (hereinafter expressed as “N^1-AcSpd”) and is only about 20 times as much as 50% binding inhibition activity against immunoreaction with N^1-acetylspermine (hereinafter expressed as “N^1-AcSpm”) which is a monoacetylated form of spermine. Since the amount of N^1-AcSpd in the urine of healthy persons is about 25 times as much as the amount of DiAcSpm therein, the crossreactivity of the above antibody with N^1-AcSpd in the urine of healthy persons is 25 when the crossreactivity of the antibody with DiAcSpm therein is taken as 100. Therefore, the antibody may yield false-positive results. Accordingly, in order to enhance the measuring sensitivity for DiAcSpm, a DiAcSpm-specific monoclonal antibody whose crossreactivities with N^1-AcSpd and N^8-acetylspermidine (hereinafter expressed as “N^8-AcSpd”) are still lower is required.

Assay [6] relates to anti-DiAcSpm antibodies in culture supernatants of DiAcSpm positive clones. Briefly: Crossreactivity test on antibody production positive clones (culture supernatant, competitive ELISA). The assay is classed as binding, mouse. From the text:
Out the DiAcSpm positive clones obtained above, 51 clones with relatively high antibody titers were selected and tested for crossreactivity with N^1-AcSpd (which is present in urine abundantly and believed to cross-react relatively easy from the results of researches made so far) by the method described later in Experimental Example 3. As a result, with respect to two wells, the 50% reaction inhibition activity of N^1-AcSpd was about 800 times as much as that of DiAcSpm; with respect to one well, the 50% reaction inhibition activity of N^1-AcSpd was 3,000 times as much as that of DiAcSpm; and with respect to the other wells, the 50% reaction inhibition activity of N^1-AcSpd was 0-200 times as much as that of DiAcSpm.
Antibody titers in diluted culture supernatants were measured by the method described in Experimental Example 2. Based on the results, the dilution rate with which the absorbance at 492 nm becomes 1 was selected. To each well of dilution plates, 70 μl of culture supernatant diluted at the dilution rate selected above and 70 μl of DiAcSpm solution with serially varied concentration or a structure analog of DiAcSpm (N^1-AcSpm, N^1-AcSpd, DiAcSpd, or the like) with serially varied concentration were mixed and added, and then left at 25° C. for 1 hour for pre-reaction. Subsequently, to each well of freeze-dried plates prepared in the same manner as in Experimental Example 1, 300 μl of BST was added, left at 25° C. for 30 minutes and re-washed with BST once. To the resultant plates, the pre-reacted reaction solution was added at 50 μl/well and left at 25° C. for 1 hour. Then, after washing with PBST three times, 50 μl of 80-fold dilution of HRP-labeled anti-mouse IgG antibody (KPL) was added to each well and left at 25° C. for 1 hour. Subsequently, after washing with PBST three times, 100 μl of o-phenylenediamine solution diluted with 0.012% hydrogen peroxide-containing 0.1 M citrate phosphate buffer (pH 5.0) to 0.5 mg/ml was added to each well and left at 25° C. for 9 minutes. Then, absorbances at 492 nm were measured with an ELISA reader.

`CC(=O)NCCCNCCCCNCCCN` [AcSpm, N^1-acetylspermine]: the “50% binding inhibition activity against immunoreaction with DiAcSpm relative to that with the analog” value in assay [1] is on record as “about 20 times”. For the same compound, in assay [2], the “KiDiAcSpm/Ki"S" (%) . . . (1)” value was determined as 1.7072% and the “Crossreactivity (1) × (2) (%)” value was 0.54%. Moreover, the “50% inhibition activity of DiAcSpm relative to that of the analog” value in assay [3] is listed as “about 70 times”.

In the case of AcSpm-GMB-AMS-BSA [lot No. 6], the “activity to inhibit the reaction of anti-DiAcSpm polyclonal antibody with solid-phased antigen” value (shortened to “activity to inhibit the reaction”) in assay [4] is given as “highest inhibition activity”.

For AcSpm-GMB-AMS-BSA [lot No. 1], the “activity to inhibit the reaction” value in assay [4] is listed as “highest inhibition activity”.

Take `CC(=O)NCCCNCCCCN` [N1-AcSpd, N^1-acetylspermidine]: the “crossreactivity of the antibody with the analog in the urine of healthy persons” value in assay [5] stood at 25. For the same compound, the “50% binding inhibition activity against immunoreaction with DiAcSpm relative to that with the analog” value in assay [1] is listed as “about 100 times”. Moreover, the “KiDiAcSpm/Ki"S" (%) . . . (1)” value in assay [2] was found to be 0.0610%. Further, in assay [2], the “Crossreactivity (1) × (2) (%)” value came out at 1.62%. Moreover, the “50% reaction inhibition activity of N^1-AcSpd relative to that of DiAcSpm” value in assay [6] (one well of 51 selected clones) is 3,000 times; in assay [6] (the other wells of 51 selected clones) it was 0-200 times; in assay [6] (two wells of 51 selected clones), “about 800 times”. The “50% inhibition activity of DiAcSpm relative to that of the analog” value in assay [3] was “about 1,000 times”.

For `CC(=O)NCCCCNCCCN` [N8-AcSpd, N^8-acetylspermidine], in assay [2], the “KiDiAcSpm/Ki"S" (%) . . . (1)” value came out at 0.0003% and the “Crossreactivity (1) × (2) (%)” value was determined as 0.01%.

For the compound `CC(=O)NCCCNCCCCNCCCNC(C)=O` [DiAcSpm, N^1,N^12-diacetylspermine], in assay [2], the “KiDiAcSpm/Ki"S" (%) . . . (1)” value is 100% and the “Crossreactivity (1) × (2) (%)” value came to 100%. Further, in assay [3], the “50% inhibition activity of DiAcSpm relative to that of the analog” value is “about 100,000 times”.

Take `CC(=O)NCCCCNCCCNC(C)=O` [DiAcSpd, N^1,N^8-diacetylspermidine]: in assay [2], the “KiDiAcSpm/Ki"S" (%) . . . (1)” value turned out to be 0.0008% and the “Crossreactivity (1) × (2) (%)” value stood at 0.002%.

Take AcSpm-GMB-AMS-BSA [lot No. 5]: the “activity to inhibit the reaction” value in assay [4] was “comes next”.

With `CC(=O)NCCCCN` [AcPut], in assay [2], the “KiDiAcSpm/Ki"S" (%) . . . (1)” value was 0.0001% and the “Crossreactivity (1) × (2) (%)” value stood at 0.01%.
